Experimental data: patent US9908895B2, “Tricyclic fused thiophene derivatives as JAK inhibitors” (Incyte Corporation, priority 2012, dated 2018)

The compounds below were run on human JAK1 (assay: In vitro JAK kinase assay (HTRF), JAK1). Details: ratio of JAK2 IC50 to JAK1 IC50 at 1 mM ATP.
Format: biochemical
Experimental: Compounds herein were tested for inhibitory activity of JAK targets according to the following in vitro assay described in Park et al., Analytical Biochemistry 1999, 269, 94-104. The catalytic domains of human JAK1 (a.a. 837-1142), JAK2 (a.a. 828-1132) and JAK3 (a.a. 781-1124) were expressed using baculovirus in insect cells and purified. The catalytic activity of JAK1, JAK2 or JAK3 was assayed by measuring the phosphorylation of a biotinylated peptide. The phosphorylated peptide was detected by homogenous time resolved fluorescence (HTRF). IC50s of compounds were measured for each kinase in the 40 μL reactions that contain the enzyme, ATP and 500 nM peptide in 50 mM Tris (pH 7.8) buffer with 100 mM NaCl, 5 mM DTT, and 0.1 mg/mL (0.01%) BSA. For the 1 mM IC50 measurements, ATP concentration in the reactions was 1 mM. Reactions were carried out at room temperature for 1 hour and then stopped with 20 μL 45 mM EDTA, 300 nM SA-APC, 6 nM Eu-Py20 in assay buffer (Perkin Elmer, Boston, Mass.). Binding to the Europium labeled antibody took place for 40 minutes and HTRF signal was measured on a PHERA star plate reader (BMG, Cary, N.C.). The Example compounds were each tested in the Example A assay (see Table 1 for data for the compounds of the examples as tested by the assay of Example A at 1 mM ATP).

| SMILES | JAK2/JAK1 |
| --- | --- |
| CC(C)c1nc2cnc3ccsc3c2n1[C@H]1CC[C@H](CC#N)OC1 [Example 42, [(2R,5S)-5-(2-Isopropyl-1H-imidazo[4,5-d]thieno[3,2-b]pyridin-1-yl)tetrahydro-2H-pyran-2-yl]acetonitrile] | >10 |
| N#CC[C@H]1CC[C@H](n2c(C3CC3)nc3cnc4ccsc4c32)CO1 [Example 43, [(2R,5S)-5-(2-Cyclopropyl-1H-imidazo[4,5-d]thieno[3,2-b]pyridin-1-yl)tetrahydro-2H-pyran-2-yl]acetonitrile] | >10 |
| C[C@@H](O)c1nc2cnc3ccsc3c2n1[C@@H]1CC[C@@H](CC#N)OC1 [Example 44, ((2S,5R)-5-{2-[(1R)-1-Hydroxyethyl]-1H-imidazo[4,5-d]thieno[3,2-b]pyridin-1-yl}tetrahydro-2H-pyran-2-yl)acetonitrile] | >10 |
| C[C@H](O)c1nc2cnc3ccsc3c2n1[C@H]1CC[C@H](CC#N)OC1 [Example 45, ((2R,5S)-5-{2-[(1S)-1-Hydroxyethyl]-1H-imidazo[4,5-d]thieno[3,2-b]pyridin-1-yl}tetrahydro-2H-pyran-2-yl)acetonitrile] | >10 |
| CCc1nc2cnc3ccsc3c2n1[C@H]1CC[C@H](CC#N)CC1 [Example 47, [trans-4-(2-Ethyl-1H-imidazo[4,5-d]thieno[3,2-b]pyridin-1-yl)cyclohexyl]acetonitrile] | >10 |
| C[C@@H](O)c1nc2cnc3ccsc3c2n1[C@H]1CC[C@@H](CC#N)C1.O=C(O)C(F)(F)F [Example 49, ((1R,3S)-3-{2-[(1R)-1-Hydroxyethyl]-1H-imidazo[4,5-d]thieno[3,2-b]pyridin-1-yl}cyclopentyl)acetonitrile trifluoroacetate] | >10 |
| C[C@@H](O)c1nc2cnc3ccsc3c2n1[C@H]1CCCN(C(=O)CCc2cn[nH]c2)C1 [Example 53, (1R)-1-(1-{(3S)-1-[3-(1H-Pyrazol-4-yl)propanoyl]piperidin-3-yl}-1H-imidazo[4,5-d]thieno[3,2-b]pyridin-2-yl)ethanol] | >10 |
| CC(CC(=O)N1CCC[C@H](n2c([C@@H](C)O)nc3cnc4ccsc4c32)C1)c1ccccc1 (stereo partly drawn) [Example 55, (1R)-1-{1-[(3S)-1-(3-Phenylbutanoyl)piperidin-3-yl]-1H-imidazo[4,5-d]thieno[3,2-b]pyridin-2-yl}ethanol] | >10 |
| C[C@@H](O)c1nc2cnc3ccsc3c2n1[C@H]1CCCN(C(=O)CCC#N)C1 [Example 58, 4-((3S)-3-{2-[(1R)-1-Hydroxyethyl]-1H-imidazo[4,5-d]thieno[3,2-b]pyridin-1-yl}piperidin-1-yl)-4-oxobutanenitrile] | >10 |
| C[C@@H](O)c1nc2cnc3ccsc3c2n1[C@H]1CCCN(C(=O)CCCC#N)C1 [Example 59, 5-((3S)-3-{2-[(1R)-1-Hydroxyethyl]-1H-imidazo[4,5-d]thieno[3,2-b]pyridin-1-yl}piperidin-1-yl)-5-oxopentanenitrile] | >10 |
| C[C@@H](O)c1nc2cnc3ccsc3c2n1[C@H]1CCN(CCC#N)C1 [Example 62, 3-((3S)-3-{2-[(1R)-1-Hydroxyethyl]-1H-imidazo[4,5-d]thieno[3,2-b]pyridin-1-yl}pyrrolidin-1-yl)propanenitrile] | >10 |
| C[C@@H](O)c1nc2cnc3ccsc3c2n1[C@H]1CCN(C(=O)CC#N)C1 [Example 63, 3-((3S)-3-{2-[(1R)-1-Hydroxyethyl]-1H-imidazo[4,5-d]thieno[3,2-b]pyridin-1-yl}pyrrolidin-1-yl)-3-oxopropanenitrile] | >6 |
| C[C@@H](O)c1nc2cnc3ccsc3c2n1[C@H]1CCN(CCCC(F)(F)F)C1 [Example 64, (1R)-1-{1-[(3S)-1-(4,4,4-Trifluorobutyl)pyrrolidin-3-yl]-1H-imidazo[4,5-d]thieno[3,2-b]pyridin-2-yl}ethanol] | >10 |
| C[C@@H](O)c1nc2cnc3ccsc3c2n1[C@H]1CCN(CCCC#N)C1 [Example 65, 4-((3S)-3-{2-[(1R)-1-Hydroxyethyl]-1H-imidazo[4,5-d]thieno[3,2-b]pyridin-1-yl}pyrrolidin-1-yl)butanenitrile] | >10 |

Continued, values first:

| JAK2/JAK1 | SMILES |
| --- | --- |
| >7 | Cc1nc2cnc3ccsc3c2n1[C@H]1CC[C@H](CC#N)CC1 [Example 48, [trans-4-(2-Methyl-1H-imidazo[4,5-d]thieno[3,2-b]pyridin-1-yl)cyclohexyl]acetonitrile] |
| >10 | CCOC(=O)N1CCC[C@H](n2c([C@@H](C)O)nc3cnc4ccsc4c32)C1 [Example 50, Ethyl(3S)-3-{2-[(1R)-1-hydroxyethyl]-1H-imidazo[4,5-d]thieno[3,2-b]pyridin-1-yl}piperidine-1-carboxylate] |
| >10 | C[C@@H](O)c1nc2cnc3ccsc3c2n1[C@H]1CCCN(C(=O)CC#N)C1.O=C(O)C(F)(F)F [Example 51, 3-((3S)-3-{2-[(1R)-1-Hydroxyethyl]-1H-imidazo[4,5-d]thieno[3,2-b]pyridin-1-yl}piperidin-1-yl)-3-oxopropanenitrile trifluoroacetate] |
| >10 | C[C@@H](O)c1nc2cnc3ccsc3c2n1[C@H]1CCCN(C(=O)CCC(F)(F)F)C1 [Example 52, (1R)-1-{1-[(3S)-1-(4,4,4-Trifluorobutanoyl)piperidin-3-yl]-1H-imidazo[4,5-d]thieno[3,2-b]pyridin-2-yl}ethanol] |
| >10 | C[C@@H](O)c1nc2cnc3ccsc3c2n1[C@H]1CCCN(C(=O)CCc2cccnc2)C1 [Example 54, (1R)-1-{1-[(3S)-1-(3-Pyridin-3-ylpropanoyl)piperidin-3-yl]-1H-imidazo[4,5-d]thieno[3,2-b]pyridin-2-yl}ethanol] |
| >10 | C[C@@H](O)c1nc2cnc3ccsc3c2n1[C@H]1CCCN(CCC#N)C1 [Example 56, 3-((3S)-3-{2-[(1R)-1-Hydroxyethyl]-1H-imidazo[4,5-d]thieno[3,2-b]pyridin-1-yl}piperidin-1-yl)propanenitrile] |
| >10 | C[C@@H](O)c1nc2cnc3ccsc3c2n1[C@H]1CCCN(C(=O)CCc2ccccc2)C1 [Example 57] |
| >10 | C[C@@H](O)c1nc2cnc3ccsc3c2n1C1CCN(CCCC(F)(F)F)CC1 [Example 60, (1R)-1-{1-[1-(4,4,4-Trifluorobutyl)piperidin-4-yl]-1H-imidazo[4,5-d]thieno[3,2-b]pyridin-2-yl}ethanol] |
| >10 | C[C@@H](O)c1nc2cnc3ccsc3c2n1C1CCN(CC#N)CC1.O=C(O)C(F)(F)F [Example 61, (4-{2-[(1R)-1-Hydroxyethyl]-1H-imidazo[4,5-d]thieno[3,2-b]pyridin-1-yl}piperidin-1-yl)acetonitrile trifluoroacetate] |
| >10 | C[C@@H](O)c1nc2cnc3ccsc3c2n1[C@H]1CCN(CCCCC#N)C1 [Example 66, 5-((3S)-3-{2-[(1R)-1-Hydroxyethyl]-1H-imidazo[4,5-d]thieno[3,2-b]pyridin-1-yl}pyrrolidin-1-yl)pentanenitrile] |
| >10 | C[C@@H](O)c1nc2cnc3ccsc3c2n1[C@H]1CC[C@H](CC#N)[C@H](N)C1 [Example 67, ((1R,2R,4S)-2-Amino-4-{2-[(1R)-1-hydroxyethyl]-1H-imidazo[4,5-d]thieno[3,2-b]pyridin-1-yl}cyclohexyl)acetonitrile] |
